This note sets out measurements from US20250099426A1, “Indolium Compounds for Treating Cancer” (Emory University, priority 2022, published 2025).

“Also recorded” adds a separate entry of the source.

The subject of series [1] is EphA3. Kind of series: ATAC-seq of LM36R tumors, chromatin accessibility. The class given is in vivo. The following applies: treated versus vehicle LM36R tumors in mice. As to the method: To gain insights into the mechanisms by which Indolium 1 caused decrease in LM36R tumor volume, we analyzed possible changes in chromatin structure in the tumor cells using ATAC-seq. […] To further explore the effects that Indolium 1 has on cells which could have led to tumor size reduction, LM36R cells were treated with varying concentrations of Indolium 1. […] Beta-tubulin was used to confirm even protein concentrations in each sample.
Experiments reported herein indicate that small molecule, Indolium 1 has activity against vemurafenib resistant BRAF mutant melanoma. Vehicle versus Indolium treated tumors in mice were analyzed for potential biomarkers and for insight into the mechanism of Indolium 1 in vivo. […] EphA3 is a receptor tyrosine kinase which binds ligands ephrinA5 and […]. […] First, inactivating mutations in EphA3 are often found in high grade malignancies. Second, activation of wild type EphA3 causes downregulation of Akt, which has previously been implicated in melanoma progression. […] Finally, a novel antibody based therapeutic directed against EphA3, and therapies that induce EphA3 could sensitize melanoma to anit-EphA3 antibodies.

The next series has as its system pMAPK. Nature of the series: Western blotting of treated LM36R cells, pMAPK. Type of series: cell-based. The following applies: 0.1-5 μM Indolium 1, 24 hours. On the procedure:
(§1) LM36R cells were grown in six T75 flasks. Upon reaching 70% confluence, cell media was replaced with media with concentrations of 0, 0.1, 0.5, 1, 2.5, and 5 μM Indolium 1. After 24 hours, cells were lysed in RIPA buffer (25 mM Tris-HCl, 150 mM NaCl, 1% NP-40, 1% sodium deoxycholate, 0.1% sodium dodecyl sulfate, pH 7.6) supplemented with HALT™ protease phosphatase inhibitor cocktails and 0.5 M EDTA solution. Cell lysates incubated on ice for 30 minutes, and then centrifuged at 16,000×g at 4° C. for 20 minutes. Protein concentration was determined using the Pierce BCA Protein Assay Kit™ and then normalized. NuPage™ LDS Sample Buffer (4×) and beta-mercaptoethanol were added to the samples, which were subsequently boiled. Sample protein (40 μg) of were loaded into each well of NuPAGE™ 4-12% Bis-Tris precast gels in MOPS buffer against Precision Plus™ Protein Dual Color Standards. Proteins were transferred onto polyvinylidene difluoride membrane using Transblot Turbo™ system. Membrane was blocked for 1 hour at room temperature in 5% non-fat dry milk in 0.1% Tween-Tris-Buffered Saline and probed with Rb (#PA5-27215) pMAPK (9101S), pAkt (#4060S), and beta-tubulin (#2146S) antibodies at 1:1000 dilutions in 5% bovine serum albumin at 4° C. overnight. […] Antibody signal was detected using SuperSignal™ West Pico chemiluminescence substrate with Medical X-Ray Film and digitally scanned.

On the set-up of series [2]: species or system mice. Particulars: mouse, in vivo. On the procedure:
The ability to inhibit the growth of vemurafenib resistant melanoma in vivo is unique.
(§2) The xenograft model was developed. A LM36R cell suspension in growth medium was inoculated at 1×10^6 cells/mouse in the right flank of athymic Nu/Nu nude male mice (n=5 per group). MPIB was prepared by dissolving 3.75 mg into 1 mL of ethanol 7. This solution (100 μL) was then diluted to the final concentration in 1 mL of 20% soy-fat Intralipid™ prior to each injection and vortexed vigorously. Vehicle control (ethanol in Intralipid) or MPIB was administered intraperitoneally three times a week at 3 mg/kg/week. MPIB treatment was initiated on the second day after the tumor cell injection, and the tumor volume as well as the weight of the animals were recorded weekly thereafter. Animals were sacrificed and tumors were harvested after tumor volumes reached experimental endpoint as determined by IACUC protocol.

Series [3] concerns Rb. Nature of the series: Immunohistochemistry of in vivo LM36R tumor model, Rb. Particulars: treated LM36R tumor tissue versus control tissue. On the set-up: species or system mice. As to the method:
(§3) Tumor samples were resected and embedded in formalin, processed, and stained. Formalin-fixed and paraffin-embedded tissue sections from each group were cut to a 5-μm thickness and air-dried. Processing was performed using Ventana DISCOVERY™ Ultra automated immunohistochemistry stainer. Slides were deparaffinized with EZ-Prep (#05279771001) and then were antigen retrieved for 64 minutes with CC1 reagent (#950-500). Rabbit anti-Eph receptor A3 (EphA3) antibody (ab126261) diluted at 1:50, Rabbit anti-Nkx3.2 (#PA5-21108 diluted at 1:500) and mouse anti-Rbl antibody (554136) diluted at 1:100 were applied and incubated for 40 minutes. For the first two stains, DISCOVERY™ OmniMap anti-Rb HRP was applied and incubated for 12 minutes, and the detection was completed in combination with DISCOVERY™ ChromoMap DAB kit for anti-EphA3 antibody and DISCOVERY™ Red kit for anti-Nkx3.2 anti-body, as per manufacturer recommendations. For the Rbl stain, DISCOVERY™ OmniMap anti-mouse HRP was applied and incubated for 12 minutes, and the detection was completed in combination with DISCOVERY™ ChromoMap DAB kit. Slides were counterstained with hematoxylin for 8 minutes. Slides were then dehydrated, cover-slipped, and evaluated by light microscopy. Whole imaging was performed.

In the next series the test system is Nkx3.2. Nature of the series: Immunohistochemistry of in vivo LM36R tumor model, Nkx3.2. On the set-up: species or system mice. The following applies: treated LM36R tumor versus control. As to the method:
as §3

Series [4] deals with LM36R, a vemurafenib-resistant melanoma cell line. Nature of the series: In vivo LM36R xenograft model, tumor volume. On the set-up: species or system athymic Nu/Nu nude male mice. The following applies: LM36R 1×10^6 cells/mouse, IP three times a week, 3 mg/kg/week, 4 weeks, N=5/group, p-value=0.03 at week 4. As to the method: Mice were inoculated with LM36R, a vemurafenib-resistant melanoma cell line, at 1×10^6 cells/mouse. Mice were then treated with Indolium via IP administration three times a week at a concentration of 3 mg/kg/week. Tumor growth was compared to control vehicle (sterile water). […] (N=5/group, p-value=0.03) at week 4.
In order to investigate Indolium 1 activity against LM36R, vemurafenib-resistant melanoma cell line, in vivo, 10 mice were inoculated at 1×10^6 cells/mouse. Mice were then treated with indolium 1 via IP administration three times a week at a concentration of 3 mg/kg/week. […] (FIG. 2).
as §2, with “Vehicle control (ethanol in Intralipid) or MPIB was administered intraperitoneally three times a week at 3 mg/kg/week.” left out

Series [5] has as its system EphA3. Kind of series: Immunohistochemistry of in vivo LM36R tumor model, EphA3. Also noted: species or system mice. Particulars: treated LM36R tumor tissue versus controls. As to the method:
as §3

A further series deals with pAkt. Kind of series: Western blotting of treated LM36R cells, pAkt. Type of series: cell-based. Particulars: 0.1-5 μM Indolium 1, 24 hours. As to the method: as §1
A general note: A western blot detects proteins with antibodies after separation by electrophoresis.

The subject of series [6] is Rb. Kind of series: Western blotting of treated LM36R cells, Rb. The class given is cell-based. Particulars: 0.1-5 μM Indolium 1, 24 hours. On the procedure: as §1
For the next series, the system named is LM36R cells. Nature of the series: Proliferation assay / cell viability (AlamarBlue). Type of series: cell-based. Particulars: Indolium 1 1 μM, 24 hours. On the procedure:
Lanes: 1) Control 2) Indolium 1 (1 μM) 3) MEK Inhibitor U0126 (10 μM) 4) Akt Inhibitor II (10 μM) 5) Indolium 1 (1 μM)+MEK Inhibitor U0126 (10 μM) 6) Indolium 1+Akt Inhibitor II (10 μM). *=Statistically lower cell viability compared to control (p<0.05). **=Statistically lower cell viability compared to control and statistically higher cell viability than Indolium 1 treatment (lane 2) alone. Inhibition of MAPK and Akt reverses cell death caused by Indolium 1.
The induction of MAPK and Akt seem to contribute to reduction in tumor size observed in mice treated with Indolium 1. In a cell viability assay, cells were treated with Indolium 1, MEK inhibitor (inhibiting the MAPK signaling pathway directly upstream of MAPK), and Akt inhibitor. Cells were also treated with a combination of Indolium 1 and each inhibitor. […]
A cell proliferation assay was used to study the effect of Indolium 1 in vitro. […] After 4 hours, the plate was read following manufacturer's instructions and the data was processed using Softmax™ Pro software (Molecular Devices). An unpaired two-tailed Student's t-test was performed to determine the significant difference between the control and each treatment group, along with between the Indolium 1 only versus Indolium 1 plus MEK/Akt inhibitor, with significance determined at p<0.05.
(The colour change of resazurin is a common sign of viable cells or microbes.)

Take “3-(bis(4-(diethylamino)phenyl) methylene)-1-methyl-2-phenyl-3H-indol-1-ium [Indolium 1]”: the “EphA3 chromatin accessibility (ATAC-seq)” value in the series on EphA3 [1] is “one of the most upregulated genes in terms of chromatin accessibility”. Also, the “pMAPK levels (Western blot)” value with pMAPK is “induction of phosphorylated MAP kinase”. The tolerability entry in series [2] is on record as “well tolerated”. In addition, the Rb immunohistochemical staining entry in the series on Rb [3] was “less Rb compared with control tissue”. Moreover, the Nkx3.2 immunohistochemical staining result in the series on Nkx3.2 is reported as “upregulated Nkx3.2 expression”. Besides, the “tumor volume versus control” value in series [4] is “potent in vivo activity against LM36R; also recorded: significant reduction of tumor volume; also recorded: reduced tumor volume over 4 weeks”. In addition, the EphA3 immunohistochemical staining result with EphA3 [5] is reported as “more positivity for EPHA3 compared to controls”. Also, in the series with pAkt, the “pAkt levels (Western blot)” value is recorded as “induction”. Further, the “levels of Rb (Western blot)” value with Rb [6] is listed as “decreased with increasing concentrations”. Also, the relative cell viability entry in the series on LM36R cells is “cell death”.
